Reference: US20220363665A1, “QUINOLINE COMPOUNDS FOR THE TREATMENT OF AUTOIMMUNE DISEASE” (Hoffmann-La Roche Inc., priority 2019, published 2022)

How the values were obtained:
human TLR7 = biological target: T1, human TLR7 (Homo sapiens, UniProt Q9NYK1); test: HEK293-Blue-hTLR-7 cells assay (SEAP reporter, R848 stimulation); type: cell-based; conditions: HEK293-Blue-hTLR7 cells, R848, 20 hrs
T1 construct: host or cells: HEK293 (HEK-Blue hTLR7)
T1 sequence (Q9NYK1 27-1049): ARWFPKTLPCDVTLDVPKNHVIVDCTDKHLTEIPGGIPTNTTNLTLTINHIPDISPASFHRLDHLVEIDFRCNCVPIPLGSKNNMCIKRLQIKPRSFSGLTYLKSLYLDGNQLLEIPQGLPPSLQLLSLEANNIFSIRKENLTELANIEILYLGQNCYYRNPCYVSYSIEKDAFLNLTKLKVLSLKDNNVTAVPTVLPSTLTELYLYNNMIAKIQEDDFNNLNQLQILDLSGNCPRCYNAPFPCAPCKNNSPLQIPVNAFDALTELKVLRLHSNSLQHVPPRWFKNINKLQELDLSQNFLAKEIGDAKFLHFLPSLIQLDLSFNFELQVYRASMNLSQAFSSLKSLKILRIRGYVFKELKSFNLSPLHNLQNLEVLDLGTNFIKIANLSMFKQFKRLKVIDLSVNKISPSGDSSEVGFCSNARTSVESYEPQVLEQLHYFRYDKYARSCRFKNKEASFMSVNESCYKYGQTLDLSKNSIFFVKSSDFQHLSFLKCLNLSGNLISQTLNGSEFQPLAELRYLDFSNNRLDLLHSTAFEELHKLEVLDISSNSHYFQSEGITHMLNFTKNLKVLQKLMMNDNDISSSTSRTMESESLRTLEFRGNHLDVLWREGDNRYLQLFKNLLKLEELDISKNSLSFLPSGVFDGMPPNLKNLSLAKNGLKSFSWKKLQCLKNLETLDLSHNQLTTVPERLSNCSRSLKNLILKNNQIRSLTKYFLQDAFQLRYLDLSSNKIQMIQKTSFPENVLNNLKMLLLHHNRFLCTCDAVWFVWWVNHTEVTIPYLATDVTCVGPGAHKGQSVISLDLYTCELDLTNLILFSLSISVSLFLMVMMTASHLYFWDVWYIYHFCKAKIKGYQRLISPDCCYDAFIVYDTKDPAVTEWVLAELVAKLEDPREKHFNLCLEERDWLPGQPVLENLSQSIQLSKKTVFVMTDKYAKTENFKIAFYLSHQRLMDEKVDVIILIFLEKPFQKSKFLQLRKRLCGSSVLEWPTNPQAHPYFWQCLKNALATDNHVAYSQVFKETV
Description: The following tests were carried out in order to determine the activity of the compounds of formula (I) in HEK293-Blue-hTLR-7/8/9 cells assay.
HEK293-Blue-hTLR-7 Cells Assay:
A stable HEK293-Blue-hTLR-7 cell line was purchased from InvivoGen (Cat. #: hkb-htlr7, San Diego, Calif. USA). These cells were originally designed for studying the stimulation of human TLR7 by monitoring the activation of NF-κB. A SEAP (secreted embryonic alkaline phosphatase) reporter gene was placed under the control of the IFN-β minimal promoter fused to five NF-κB and AP-1-binding sites. The SEAP was induced by activating NF-κB and AP-1 via stimulating HEK-Blue hTLR7 cells with TLR7 ligands. Therefore the reporter expression was declined by TLR7 antagonist under the stimulation of a ligand, such as R848 (Resiquimod), for incubation of 20 hrs. The cell culture supernatant SEAP reporter activity was determined using QUANTI-Blue™ kit (Cat. #: rep-qbl, Invivogen, San Diego, Calif., USA) at a wavelength of 640 nm, a detection medium that turns purple or blue in the presence of alkaline phosphatase.
HEK293-Blue-hTLR7 cells were incubated at a density of 250,000˜450,000 cells/mL in a volume of 170 μL in a 96-well plate in Dulbecco's Modified Eagle's medium (DMEM) containing 4.5 g/L glucose, 50 U/mL penicillin, […], […], 2 mM L-glutamine, 10% (v/v) heat-inactivated fetal bovine serum with addition of 20 μL A test compound in a serial dilution in the presence of final DMSO at 1% and 10 μL of 20 uM R848 in above DMEM, perform incubation under 37° C. in a CO2 incubator for 20 hrs. Then 20 μL of the supernatant from each well was incubated with 180 μQuanti-blue substrate solution at 37° C. for 2 hrs and the absorbance was read at 620˜655 nm using a spectrophotometer. The signalling pathway that TLR7 activation leads to downstream NF-κB activation has been widely accepted, and therefore similar reporter assay was modified for evaluating TLR7 antagonist.

CYP2C9 = biological target: T2, CYP2C9 (Homo sapiens, UniProt P11712); test: CYP inhibition assay in human liver microsome, CYP2C9; type: in vitro ADME; conditions: human, liver microsomes, probe diclofenac, HLM, diclofenac substrate, read-out: CYP inhibition % @10 uM (2C9)
T2 construct: tissue BD-Gentest 452117; host or cells: human liver microsomes
Description: This is a high throughput screening assay used for assessment of reversible inhibition of CYP2C9, CYP2D6, and CYP3A4 activity of test compounds in human liver microsome (HLM) in early discovery stage.
10 mM DMSO stock solutions of test compounds were diluted in DMSO to generate 2 mM intermediate stock solution. 250 nL of intermediate stock solution were transferred in duplicate into 3 separate 384 well microtitre plates (assay-ready plates). A mixture of HLM and each substrate was made up. 45 μL of HLM substrate mix was then transferred to each well of an assay ready plate and mixed. The negative (solvent) and positive controls (standard inhibitor for each CYP) were included in each assay ready plate. The assay ready plate was warmed to 37° C. in an incubator over 10 minutes. 5 μL pre-warmed NADPH regenerating system was added to each incubation well to start the reaction. Final incubation volume was 50 μL. The assay plate then was placed back in the 37° C. incubator. After 5 minutes incubation (10 minutes for CYP2D6), incubates were quenched by addition of 50 μL quench reagent containing internal standards (400 ng/mL 13C6-4′-OH-Diclofenac, 20 ng/mL D3-Dextrorphan and 20 ng/mL D4-1′OH-Midazolam in acetonitrile). The supernatants were collected for RapidFire/MS/MS analysis.
RapidFire online solid phase extraction/sample injection system (Agilent) coupled with API4000 triple quadrupole mass spectrometer (AB Sciex) were used for sample analysis. The mobile phase composed of acetonitrile and water supplemented with 0.1% formic acid. A C4 solid phase extraction cartridge is used for sample separation. MS detection is achieved in positive ion MRM mode.
Peak areas for substrate, metabolite and internal standard are determined using the
RapidFire integrator software (version 3.6.12009.12296). Peak area ratios (PAR) of metabolite and internal standard (stable-labelled metabolite) are then calculated. The measurement window for each experiment is then defined:
PAR (0% activity)=average PAR for all incubations containing concentrated inhibitor;
Par (100% activity)=average PAR for all incubations containing no inhibitor (DMSO controls);
% Activity (test inhibitor) =[PAR(test inhibitor)-PAR(0% activity)][PAR(100% activity)-PAR(0% activity)];
% Inhibition (test inhibitor)=100-% Activity (test inhibitor).
Percentage inhibition data are then reported, in duplicate, for the 3 CYP enzymes.

T2 sequence (P11712 whole entry): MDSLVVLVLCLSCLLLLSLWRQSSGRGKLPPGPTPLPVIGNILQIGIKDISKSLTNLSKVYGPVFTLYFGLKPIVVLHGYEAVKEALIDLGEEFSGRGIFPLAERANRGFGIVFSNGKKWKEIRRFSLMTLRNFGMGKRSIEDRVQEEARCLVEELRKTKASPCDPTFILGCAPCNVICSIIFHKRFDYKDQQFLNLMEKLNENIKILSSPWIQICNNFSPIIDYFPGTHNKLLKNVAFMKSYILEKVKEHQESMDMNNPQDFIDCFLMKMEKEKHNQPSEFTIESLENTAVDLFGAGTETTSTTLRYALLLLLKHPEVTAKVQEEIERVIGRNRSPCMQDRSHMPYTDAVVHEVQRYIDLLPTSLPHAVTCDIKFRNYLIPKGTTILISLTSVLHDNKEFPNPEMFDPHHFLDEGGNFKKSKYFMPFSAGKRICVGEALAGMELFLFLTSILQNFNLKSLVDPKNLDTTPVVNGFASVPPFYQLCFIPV

IC50 (human TLR7) [nM]	inhibition at 5 min, 10 µM (CYP2C9) [%]	Compound
140	-4	Cc1ccc(N2C[C@@H](C)O[C@@H](C(=O)NCC3CN(C)CCO3)C2)c2cccnc12 (stereo partly drawn) [Example 17, (2R,6R)-6-methyl-N-[(4-methylmorpholin-2-yl)methyl]-4-(8-methyl-5-quinolyl)morpholine-2-carboxamide]
7	-16	C[C@H]1C[C@@H](N)CN(c2ccc(Cl)c3ncccc23)C1 [Example 23, (3R,5S)-1-(8-chloro-5-quinolyl)-5-methyl-piperidin-3-amine]
15	-20	C[C@@H]1CN(c2ccc(Cl)c3ncccc23)C[C@H](C(=O)NC2CCN(C)CC2)O1 [Example 24, (2R,6R)-4-(8-chloro-5-quinolyI)-6-methyl-N-(1-methyl-4-piperidyl)morpholine-2-carboxamide]
12	26	C[C@@H]1CN(c2ccc(Cl)c3ncccc23)C[C@H](C(=O)NC2CCCNCC2)O1 (stereo partly drawn) [Example 25, (2R,6R)-N-(azepan-4-yl)-4-(8-chloro-5-quinolyl)-6-methyl-morpholine-2-carboxamide]
23	-13	C[C@@H]1CN(c2ccc(Cl)c3ncccc23)C[C@H](C(=O)NCC2CN(C)CCO2)O1 (stereo partly drawn) [Example 26, (2R,6R)-4-(8-chloro-5-quinolyl)-6-methyl-N-[(4-methylmorpholin-2-yl)methyl]morpholine-2-carboxamide]
60	-8	C[C@@H]1CN(c2ccc(C(F)(F)F)c3ncccc23)C[C@H](C(=O)NC[C@@H]2C[C@@H](F)CN2)O1 [Example 27, (2R,6R)-N-[[(2S,4R)-4-fluoropyrrolidin-2-yl]methyl]-6-methyl-4-[8-(trifluoromethyl)-5-quinolyl]morpholine-2-carboxamide]
200	23	C[C@@H]1CN(c2ccc(C(F)(F)F)c3ncccc23)C[C@H](C(=O)NC2CNCC(F)(F)C2)O1 (stereo partly drawn) [Example 28, (2R,6R)-N-(5,5-difluoro-3-piperidyl)-6-methyl-4-[8-(trifluoromethyl)-5-quinolyl]morpholine-2-carboxamide]
370	20	C[C@@H]1CN(c2ccc(C(F)(F)F)c3ncccc23)C[C@H](C(=O)NC[C@@H]2CC(F)(F)CN2)O1 [Example 30]
5	-1	C[C@@H]1CN(c2ccc(C(F)(F)F)c3ncccc23)C[C@H](C(=O)NC2C3CCC2CNC3)O1 (stereo partly drawn) [Example 31, (2R,6R)-N-(3-azabicyclo[3.2.1]octan-8-yl)-6-methyl-4-[8-(trifluoromethyl)-5-quinolyl]morpholine-2-carboxamide]
78	-8	C[C@@H]1CN(c2ccc(C(F)(F)F)c3ncccc23)C[C@H](C(=O)N2CCC3(CCNCC3)CC2)O1 [Example 32, 3,9-diazaspiro[5.5]undecan-3-yl-[(2R,6R)-6-methyl-4-[8-(trifluoromethyl)-5-quinolyl]morpholin-2-yl]methanone]
130	1	C[C@@H]1CN(c2ccc(C(F)(F)F)c3ncccc23)C[C@H](C(=O)N2CCC3(CCNC3)C2)O1 (stereo partly shown) [Example 36]
2	4	C[C@@H]1CN(c2ccc(C(F)(F)F)c3ncccc23)C[C@H](C(=O)NC2CC3CNCC(C3)C2)O1 (stereo partly drawn) [Example 37, (2R,6R)-N-(3-azabicyclo[3.3.1]nonan-7-yl)-6-methyl-4-[8-(trifluoromethyl)-5-quinolyl]morpholine-2-carboxamide]
3	-3	C[C@@H]1CN(c2ccc(I)c3ncccc23)C[C@H](C(=O)NC2CCN(C)CC2)O1 [Example 38, (2R,6R)-4-(8-iodo-5-quinolyl)-6-methyl-N-(1-methyl-4-piperidyl)morpholine-2-carboxamide]
7	-7	C[C@@H]1CN(c2ccc(I)c3ncccc23)C[C@H](C(=O)NCC2CN(C)CCO2)O1 (stereo partly drawn) [Example 39, (2R,6R)-4-(8-iodo-5-quinolyl)-6-methyl-N-[(4-methylmorpholin-2-yl)methyl]morpholine-2-carboxamide]
5	-4	C[C@@H]1CN(c2ccc(Br)c3ncccc23)C[C@H](C(=O)NC2CCN(C)CC2)O1 [Example 42, (2R,6R)-4-(8-bromo-5-quinolyl)-6-methyl-N-(1-methyl-4-piperidyl)morpholine-2-carboxamide]

Compound	IC50 (human TLR7) [nM]	inhibition at 5 min, 10 µM (CYP2C9) [%]
C[C@@H]1CN(c2ccc([N+](=O)[O-])c3ncccc23)C[C@H](C(=O)NCC2CN(C)CCO2)O1 (stereo partly drawn) [Example 18, (2R,6R)-6-methyl-N-[(4-methylmorpholin-2-yl)methyl]-4-(8-nitro-5-quinolyl)morpholine-2-carboxamide]	5	-4
C[C@@H]1CN(c2ccc([N+](=O)[O-])c3ncccc23)C[C@H](C(=O)NC2CCN(C)CC2)O1 [Example 20, (2R,6R)-6-methyl-N-(1-methyl-4-piperidyl)-4-(8-nitro-5-quinolyl)morpholine-2-carboxamide]	2	-6
